The values that follow come from patent publication US9981972B2, “N-hydroxy bicyclic hydantoin carbamates as tools for identification of serine hydrolase targets” (ABIDE THERAPEUTICS, INC., priority 2014, dated 2018).

Structures are written as SMILES. “Also recorded” adds a separate entry of the source.

Holding throughout (format): biochemical
For one experiment, the target named is T1, LYPLA2 (Mus musculus, UniProt Q9WTL7).
T1 construct: a complex proteome endogenously expressing LYPLA1/2 was incubated with test compound; from tissue; host or cells: mouse brain, membrane fraction
T1 sequence (Q9WTL7 whole entry): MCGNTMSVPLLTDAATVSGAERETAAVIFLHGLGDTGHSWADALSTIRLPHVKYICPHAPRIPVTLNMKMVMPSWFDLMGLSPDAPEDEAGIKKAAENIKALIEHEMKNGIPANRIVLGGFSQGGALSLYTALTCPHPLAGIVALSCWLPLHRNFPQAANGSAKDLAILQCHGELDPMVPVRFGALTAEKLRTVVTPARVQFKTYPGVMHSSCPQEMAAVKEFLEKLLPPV
The experiment in a line: Gel-based competitive ABPP in vitro, mouse brain membrane proteome. Particulars: 30 min, one replicate; for inhibition at 1 µM: 1 μM compound, read-out: LYPLA2 % INH 1 μM; for inhibition at 10 µM: 10 μM compound, read-out: LYPLA2 % INH 10 μM; for inhibition at 100 µM: 100 μM compound, read-out: LYPLA2 % INH 100 μM; for inhibition at 0.1 µM: 0.1 μM compound, read-out: LYPLA2 % INH 0.1 μM. On the procedure:
(§1) Assay Overview: The purpose of this assay was to determine whether test compounds can inhibit LYPLA1 and LYPLA2 in a complex proteomic lysate and to assess anti-target inhibition using a competitive activity-based proteomic profiling (ABPP) assay. In this assay, a complex proteome endogenously expressing LYPLA1/2 was incubated with test compound followed by reaction with a rhodamine-conjugated fluorophosphonate (FP-Rh) serine-hydrolase specific activity-based probe. The reaction products were separated by SDS-PAGE and visualized in-gel using a flatbed fluorescence scanner. The percentage activity remaining was determined by measuring the integrated optical density of the bands. […] Percent inhibition was calculated relative to a DMSO (no compound) control.
(§2) Protocol Summary: Mouse brain membrane proteome (50 μL reaction volume, 1 mg/mL in DPBS) was treated with 0.1-100 μM test compound (1 μL of a 50× stock in DMSO) for 30 minutes at 37° C. FP-Rh (1 μL of 50× stock in DMSO, Thermo #88318) was added to a final concentration of 2 μM. The reactions were incubated for 30 minutes at 25° C., quenched with 16 μL 4×SDS-PAGE loading buffer (reducing), separated by SDS-PAGE and visualized by in-gel fluorescent scanning. The percentage activity remaining was determined by measuring the integrated optical density of the bands relative to a DMSO-only (no compound) control. Assay Cutoff: Compounds with ≥50% inhibition of targets at 1 μM test compound concentration were considered active.
(§3) N-Hydroxy bicyclic hydantoin carbamates (Compounds 1-20) listed in Table 1 were subjected to gel-based competitive ABPP screening to assess SH reactivity against more than 20 FP-sensitive SHs visible by 1D SDS-PAGE separation and fluorescent detection in the mouse brain proteome (see FIG. 1). […] Compound treatment ([…], 30 minutes) was followed by labeling with SH-specific ABPP probe FP-Rh (2 μM, 30 minutes), 1D-SDS-PAGE, and in-gel fluorescent visualization of FP-labeled proteins. Assignment of LYPLA1/2 bands was based on correlation of molecular weights, expression and inhibition profiles with LC-MS/MS data and recombinant enzyme expression. Proteins were listed as anti-targets if at least 50% inhibition was observed as quantified relative to the DMSO control.
(§4) Compounds 1-20 were subjected to gel-based competitive ABPP profiling to assess potency and selectivity against several dozen FP-sensitive SHs in the mouse brain membrane proteome, which endogenously expresses LYPLA1 and LYPLA2, as well a diversity of potential SH anti-targets. Compounds were tested at 100 μM, 10 μM, 1 μM, and/or 0.1 μM compound concentration.

For the next experiment, the target named is T2, LYPLA1 (Mus musculus, UniProt P97823).
T2 construct: a complex proteome endogenously expressing LYPLA1/2 was incubated with test compound; from tissue; host or cells: mouse brain, membrane fraction
T2 sequence (P97823 whole entry): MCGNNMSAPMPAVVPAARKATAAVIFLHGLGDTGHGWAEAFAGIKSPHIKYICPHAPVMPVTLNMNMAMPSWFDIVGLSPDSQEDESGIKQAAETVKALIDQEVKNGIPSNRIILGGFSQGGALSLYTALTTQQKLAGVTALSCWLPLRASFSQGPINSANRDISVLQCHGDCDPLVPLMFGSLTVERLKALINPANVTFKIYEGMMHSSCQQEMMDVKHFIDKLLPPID
The experiment is described as above. The conditions noted are these: 30 min, one replicate; for inhibition at 1 µM: 1 μM compound, read-out: LYPLA1 % INH 1 μM; for inhibition at 10 µM: 10 μM compound, read-out: LYPLA1 % INH 10 μM; for inhibition at 100 µM: 100 μM compound, read-out: LYPLA1 % INH 100 μM; for inhibition at 0.1 µM: 0.1 μM compound, read-out: LYPLA1 % INH 0.1 μM. On the procedure:
as §1, §2, §3, §4

The subject of experiment [1] is FP-sensitive SHs in the mouse brain membrane proteome. The experiment is described as follows: Gel-based competitive ABPP in vitro, mouse brain membrane proteome, anti-targets. The conditions noted are these: for Anti-target(s) 1 μM: SHs with at least 50% inhibition at 1 μM compound; for Anti-target(s) 10 μM: SHs with at least 50% inhibition at 10 μM compound; for Anti-target(s) 100 μM: SHs with at least 50% inhibition at 100 μM compound; for Anti-target(s) 0.1 μM: SHs with at least 50% inhibition at 0.1 μM compound. On the procedure:
as §1, §2, §3, §4

For `COc1ccc(C(=O)N2CCN3C(=O)N(OC(=O)N4CCC(CCc5ccc(Cl)cc5)CC4)C(=O)C3C2)cc1` (stereo not drawn) [Compound 11, 7-(4-methoxybenzoyl)-1,3-dioxohexahydroimidazo[1,5-a]pyrazin-2(3H)-yl 4-(4-chlorophenethyl)piperidine-1-carboxylate], at LYPLA2, the inhibition at 1 µM was determined as 90%, the inhibition at 10 µM came to 100% and the inhibition at 100 µM was 100%. On LYPLA1, the inhibition at 1 µM amounted to 90%, the inhibition at 10 µM was 100% and the inhibition at 100 µM turned out to be 100%. For the same compound, in experiment [1], the “Anti-target(s) 1 μM” value is “ABHD6”, the “Anti-target(s) 10 μM” value was “FAAH,; also recorded: ABHD12,; also recorded: MAGL,; also recorded: ABHD6” and the “Anti-target(s) 100 μM” value is reported as “FAAH,; also recorded: ABHD12,; also recorded: MAGL,; also recorded: ABHD6”.

Turning to `CC(C)(C)OC(=O)N1CCN2C(=O)N(OC(=O)N3CCC(C(=O)Nc4ccccc4)CC3)C(=O)C2C1` (stereo not drawn) [Compound 19, tert-butyl 1,3-dioxo-2-(4-(phenylcarbamoyl)piperidine-1-carbonyloxy)hexahydroimidazo[1,5-a]pyrazine-7(1H)-carboxylate], at LYPLA2, the inhibition at 0.1 µM was found to be 0%, the inhibition at 1 µM came out at 0%, the inhibition at 10 µM came out at 0% and the inhibition at 100 µM came to 25%. For the same compound, at LYPLA1, the inhibition at 0.1 µM was found to be 0%, the inhibition at 1 µM is 0%, the inhibition at 10 µM is 10% and the inhibition at 100 µM amounted to 50%. Moreover, in experiment [1], the “Anti-target(s) 0.1 μM” value is reported as “ABHD6”, the “Anti-target(s) 1 μM” value is recorded as “ABHD6”, the “Anti-target(s) 10 μM” value is recorded as “ABHD6” and the “Anti-target(s) 100 μM” value was “FAAH,; also recorded: ABHD6”.

Consider `O=C(Cc1ccccc1)N1CCN2C(=O)N(OC(=O)N3CCC(CCc4ccc(Cl)cc4)CC3)C(=O)C2C1` (stereo not drawn) [Compound 6, 1,3-dioxo-7-(2-phenylacetyl)hexahydroimidazo[1,5-a]pyrazin-2(3H)-yl 4-(4-chlorophenethyl)piperidine-1-carboxylate], for which, at LYPLA2, the inhibition at 0.1 µM came to 25%, the inhibition at 1 µM was 95%, the inhibition at 10 µM worked out at 100% and the inhibition at 100 µM worked out at 100%. Further, on LYPLA1, the inhibition at 0.1 µM amounted to 25%, the inhibition at 1 µM came to 95%, the inhibition at 10 µM is 100% and the inhibition at 100 µM was determined as 100%. In experiment [1], the “Anti-target(s) 0.1 μM” value is recorded as “ABHD6”, the “Anti-target(s) 1 μM” value was “FAAH,; also recorded: ABHD6”, the “Anti-target(s) 10 μM” value is “FAAH,; also recorded: MAGL,; also recorded: ABHD6” and the “Anti-target(s) 100 μM” value is listed as “FAAH,; also recorded: MAGL,; also recorded: ABHD6”.

As to `CC(C)(C)OC(=O)N1CCN2C(=O)N(OC(=O)N3CCN(C(c4ccc(Cl)cc4)c4ccc(Cl)cc4)CC3)C(=O)C2C1` (stereo not drawn) [Compound 18, tert-butyl 2-(4-(bis(4-chlorophenyl)methyl)piperazine-1-carbonyloxy)-1,3-dioxohexahydroimidazo[1,5-a]pyrazine-7(1H)-carboxylate], on LYPLA2, the inhibition at 0.1 µM was determined as 0%, the inhibition at 1 µM amounted to 10%, the inhibition at 10 µM worked out at 50% and the inhibition at 100 µM came to 60%. Besides, on LYPLA1, the inhibition at 0.1 µM turned out to be 0%, the inhibition at 1 µM worked out at 10%, the inhibition at 10 µM turned out to be 50% and the inhibition at 100 µM was determined as 60%. In experiment [1], the “Anti-target(s) 0.1 μM” value is given as “ABHD6”, the “Anti-target(s) 1 μM” value was “ABHD6”, the “Anti-target(s) 10 μM” value was “ABHD6” and the “Anti-target(s) 100 μM” value is recorded as “ABHD6”.

For `O=C(ON1C(=O)C2CN(C(=O)c3ccc(F)c([N+](=O)[O-])c3)CCN2C1=O)N1CCC(CCc2ccc(Cl)cc2)CC1` (stereo not drawn) [Compound 9, 7-(4-fluoro-3-nitrobenzoyl)-1,3-dioxohexahydroimidazo[1,5-a]pyrazin-2(3H)-yl 4-(4-chlorophenethyl)piperidine-1-carboxylate], on LYPLA2, the inhibition at 1 µM amounted to 90%, the inhibition at 10 µM was determined as 100% and the inhibition at 100 µM worked out at 100%. On LYPLA1, the inhibition at 1 µM came out at 90%, the inhibition at 10 µM was 100% and the inhibition at 100 µM amounted to 100%. Moreover, in experiment [1], the “Anti-target(s) 1 μM” value was “ABHD6”, the “Anti-target(s) 10 μM” value is listed as “FAAH,; also recorded: ABHD12,; also recorded: ABHD6” and the “Anti-target(s) 100 μM” value is “FAAH,; also recorded: ABHD12,; also recorded: MAGL,; also recorded: ABHD6”.

Turning to `CC(C)(C)OC(=O)N1CCN2C(=O)N(OC(=O)N3CCOCC3Cc3ccccc3)C(=O)C2C1` (stereo not drawn) [Compound 16, 7-(tert-butoxycarbonyl)-1,3-dioxohexahydroimidazo[1,5-a]pyrazin-2(3H)-yl 3-benzylmorpholine-4-carboxylate], on LYPLA2, the inhibition at 0.1 µM stood at 0%, the inhibition at 1 µM amounted to 0%, the inhibition at 10 µM is 0% and the inhibition at 100 µM was 0%. For the same compound, on LYPLA1, the inhibition at 0.1 µM came out at 0%, the inhibition at 1 µM was determined as 0%, the inhibition at 10 µM stood at 0% and the inhibition at 100 µM is 0%. In experiment [1], the “Anti-target(s) 0.1 μM” value is reported as “none”, the “Anti-target(s) 1 μM” value is listed as “none”, the “Anti-target(s) 10 μM” value was “ABHD6” and the “Anti-target(s) 100 μM” value was “ABHD6”.

For the compound `O=C(ON1C(=O)C2CN(CCc3ccccc3)CCN2C1=O)N1CCC(CCc2ccc(Cl)cc2)CC1` (stereo not drawn) [Compound 12, 1,3-dioxo-7-phenethylhexahydroimidazo[1,5-a]pyrazin-2(3H)-yl 4-(4-chlorophenethyl)piperidine-1-carboxylate], on LYPLA2, the inhibition at 0.1 µM turned out to be 0%, the inhibition at 1 µM came out at 25%, the inhibition at 10 µM is 95% and the inhibition at 100 µM was determined as 100%. On LYPLA1, the inhibition at 0.1 µM came to 0%, the inhibition at 1 µM is 25%, the inhibition at 10 µM stood at 95% and the inhibition at 100 µM worked out at 100%. In addition, in experiment [1], the “Anti-target(s) 0.1 μM” value is “ABHD6”, the “Anti-target(s) 1 μM” value is reported as “ABHD6”, the “Anti-target(s) 10 μM” value is “FAAH,; also recorded: ABHD4,; also recorded: MAGL,; also recorded: ABHD6” and the “Anti-target(s) 100 μM” value is “FAAH,; also recorded: ABHD4,; also recorded: MAGL,; also recorded: ABHD6”.

On to `CN(C)c1ccc(C(=O)N2CCN3C(=O)N(OC(=O)N4CCC(CCc5ccc(Cl)cc5)CC4)C(=O)C3C2)cc1` (stereo not drawn) [Compound 10, 7-(4-(dimethylamino)benzoyl)-1,3-dioxohexahydroimidazo[1,5-a]pyrazin-2(3H)-yl4-(4-chlorophenethyl)piperidine-1-carboxylate], for which, on LYPLA2, the inhibition at 1 µM is 75%, the inhibition at 10 µM amounted to 100% and the inhibition at 100 µM is 100%. Further, at LYPLA1, the inhibition at 1 µM was 75%, the inhibition at 10 µM was 100% and the inhibition at 100 µM was determined as 100%.

Turning to `COC(=O)C1CCN(C(=O)ON2C(=O)C3CN(C(=O)OC(C)(C)C)CCN3C2=O)CC1` (stereo not drawn) [Compound 15, 1-(7-(tert-butoxycarbonyl)-1,3-dioxohexahydroimidazo[1,5-a]pyrazin-2(3H)-yl) 4-methyl piperidine-1,4-dicarboxylate], at LYPLA2, the inhibition at 0.1 µM came to 0%, the inhibition at 1 µM was 0%, the inhibition at 10 µM was 0% and the inhibition at 100 µM is 25%. At LYPLA1, the inhibition at 0.1 µM amounted to 0%, the inhibition at 1 µM stood at 0%, the inhibition at 10 µM was determined as 0% and the inhibition at 100 µM was 25%. For the same compound, in experiment [1], the “Anti-target(s) 0.1 μM” value is on record as “ABHD6”, the “Anti-target(s) 1 μM” value was “ABHD6”, the “Anti-target(s) 10 μM” value is given as “ABHD6” and the “Anti-target(s) 100 μM” value was “ABHD6”.
